# Columns and labels:
# [1] = test system: A375 cells; test: MTT cell activity, melanoma cell line A375 with low expression of MITF; format: cell-based
# Method: (§1) The active TT012 was incubated with MITF-dependent and highly expressed melanoma cell line B16F10, the melanoma cell line A375 with low expression of MITF, and control cell line Hela, respectively, and cell activity was detected by MTT experiment.
# [2] = test system: B16F10 cells; test: MTT cell activity, MITF-dependent melanoma cell line B16F10; format: cell-based; settings: Mus musculus, B16-F10, MITF-dependent and highly expressed, read-out: IC50 of inhibiting growth of B16F10 cells
# Method: as §1
# [3] = test system: MITF landmark downstream genes-TYR and TRPM1; test: Fluorescent quantitative RT-PCR of MITF downstream genes in B16F10 cells; format: cell-based; settings: Mus musculus, B16-F10, B16F10 cell line, read-out: IC50 of inhibiting mRNA levels of TYR and TRPM1
# Method: TT-012 was incubated with melanoma cell B16F10 cell line, mRNA was extracted and reverse transcripted, and the transcription of MITF landmark downstream genes-TYR (tyrosinase) and TRPM1 (transient receptor potential cation channel M1) were detected by fluorescent quantitative PCR.
# [4] = test system: Hela cells; test: MTT cell activity, control cell line Hela; format: cell-based
# Method: as §1
# [5] = test system: melanin formation; test: Forskolin-induced melanin production; format: cell-based
# From the text: MITF regulated the transcription and expression of melanin synthase TYR, TYRP1, and is the main regulatory factor of melanin formation. Foskolin, a small molecule compound, could regulate pathway, promote the expression of MITF, and promote melanin production by activating MSH-cAMP-CREB.
# [6] = target: T1, MITF dimer (Homo sapiens, UniProt O75030); test: AlphaScreen high-throughput screening model MIDAS (MITF Dependent Alpha-Screen), MITF dimer formation; format: binding; settings: read-out: IC50 of inhibiting formation of MITF dimer
# T1 sequence (O75030 1-526): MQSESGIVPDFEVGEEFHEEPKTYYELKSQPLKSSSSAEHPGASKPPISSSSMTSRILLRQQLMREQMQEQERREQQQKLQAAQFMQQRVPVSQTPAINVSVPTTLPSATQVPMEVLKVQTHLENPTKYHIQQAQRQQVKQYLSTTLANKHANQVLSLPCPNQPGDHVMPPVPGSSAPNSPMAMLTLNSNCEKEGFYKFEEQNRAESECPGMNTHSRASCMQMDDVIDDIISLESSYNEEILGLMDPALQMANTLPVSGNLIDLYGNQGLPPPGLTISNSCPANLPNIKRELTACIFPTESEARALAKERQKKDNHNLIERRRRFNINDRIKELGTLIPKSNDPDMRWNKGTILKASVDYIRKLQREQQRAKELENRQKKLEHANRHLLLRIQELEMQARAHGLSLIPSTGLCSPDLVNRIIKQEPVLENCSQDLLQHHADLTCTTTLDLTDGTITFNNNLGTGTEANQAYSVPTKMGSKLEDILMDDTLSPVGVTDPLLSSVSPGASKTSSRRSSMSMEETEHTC
# From the text: In the AlphaScreen high-throughput screening model MIDAS (MITF Dependent Alpha-Screen), MITF was labeled with a Biotin tag recognized by Alpha donor beads and a His tag recognized by Alpha receptor beads, respectively. When MITF formed a dimer, Alpha Donor beads and Alpha Receptor beads were pulled close to each other and detected by 680 nm excitation light and 520-620 nm emission light, thereby monitoring the formation of MITF dimer.
# [7] = target: LysRS-p38 interaction (Homo sapiens, UniProt Q13155+Q15046); test: AlphaScreen control test, LysRS-p38 interaction; format: binding
# Chain of LysRS-p38 interaction (Q15046 whole entry): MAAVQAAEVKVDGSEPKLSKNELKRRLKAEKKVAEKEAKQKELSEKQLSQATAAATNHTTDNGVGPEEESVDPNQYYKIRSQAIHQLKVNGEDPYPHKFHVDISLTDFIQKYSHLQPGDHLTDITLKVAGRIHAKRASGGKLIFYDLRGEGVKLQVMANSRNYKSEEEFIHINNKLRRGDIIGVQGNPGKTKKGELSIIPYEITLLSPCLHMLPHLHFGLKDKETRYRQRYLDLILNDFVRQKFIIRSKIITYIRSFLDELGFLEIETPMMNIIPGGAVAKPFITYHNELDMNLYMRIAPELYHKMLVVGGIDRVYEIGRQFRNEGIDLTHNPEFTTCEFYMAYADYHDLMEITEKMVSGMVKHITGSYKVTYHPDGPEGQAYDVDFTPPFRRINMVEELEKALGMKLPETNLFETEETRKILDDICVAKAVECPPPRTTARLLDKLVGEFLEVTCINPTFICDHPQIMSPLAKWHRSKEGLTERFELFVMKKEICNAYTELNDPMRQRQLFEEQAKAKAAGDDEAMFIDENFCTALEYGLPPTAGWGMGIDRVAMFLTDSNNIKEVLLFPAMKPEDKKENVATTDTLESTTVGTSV
# Chain of LysRS-p38 interaction (Q13155 whole entry): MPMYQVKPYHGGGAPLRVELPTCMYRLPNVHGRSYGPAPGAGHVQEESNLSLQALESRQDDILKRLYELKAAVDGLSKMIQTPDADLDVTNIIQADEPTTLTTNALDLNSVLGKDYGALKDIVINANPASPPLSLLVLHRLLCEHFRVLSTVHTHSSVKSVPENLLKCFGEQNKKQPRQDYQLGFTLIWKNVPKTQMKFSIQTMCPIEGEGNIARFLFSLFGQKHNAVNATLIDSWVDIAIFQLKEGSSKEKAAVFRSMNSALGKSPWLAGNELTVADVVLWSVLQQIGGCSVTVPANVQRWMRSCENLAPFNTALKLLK
smiles,measurement,setting,value
O=C(/C=C/c1ccco1)Nc1cccc(NC(=O)/C=C/c2ccco2)n1 [TT-012],killing effect on A375 cells,[1],no killing effects
same,IC50,[2],300 nM
same,IC50,[3],2000 nM
same,killing effect on control cells HELA,[4],no killing effects
same,inhibition of melanin formation,[5],effectively inhibit
same,IC50,[6],10 nM
same,effect on AlphaScreen signal of LysRS-p38 interaction,[7],not affect

# Reference: patent US11077097B2, “Use of aromatic ring drug in inhibiting key transcription factor of malignant melanoma” (SHANGHAI INSTITUTE OF ORGANIC CHEMISTRY, CHINESE ACADEMY OF …, priority 2017, dated 2021)
